From patent US7087608B2, “Use of PDGF receptor tyrosine kinase inhibitors for the treatment of diabetic nephropathy” (priority 2000, dated 2006)

System: male Wistar rats with anti-Thy-1 nephritis
Assay: Mesangial proliferative glomerulonephritis (anti-Thy-1 nephritis) induced with OX-7 antibody
Assay type: in vivo, rat
From the text: Mesangial proliferative Glomerulonephritis induced in Male Wistar Rats with monoclonal OX-7, anti-rat Thy-1.1 Antibody
Monoclonal OX-7, anti-rat Thy-1.1 antibody is used for the induction of mesangial proliferative glomerulonephritis (D. W. Mason and A. F. Williams, Biochem. J. 187(1), 1980, 1–20), macrophages are detected using ED1, anti-rat CD68 (C. D. Dijkstra et al., Immunology 54(3), 1985, 589–99) myofibroblasts are identified by labelling with 1A4, anti-human a smooth muscle actin (Sigma Immunochemicals, St. Louis, Mo.) and M744, anti-BrdU (Dako, Glostrup, Denmark) is used to identify proliferating cells. A polyclonal goat anti-bovine/anti-human type IV collagen antibody (Southern Biotechnology, Birmingham, Ala.) is used to examine extracellular matrix.
Anti-Thy-1 nephritis is induced in two groups of 8 male Wistar rats (150–170 g) by i.v. injection of 5 mg/kg OX-7 IgG (D. J. Nikolic-Paterson et al., J. Am. Soc. Nephrol. 7(7), 1996, 1006–14). […] A group of 8 normal rats are also injected with BrdU 3 hours before sacrifice.
Twenty-four hour urine collections and blood samples are taken on days-3 (prior to test) and day 6. Urinary protein concentration is measured by the benzethonium chloride method (Iwata, J. et al., Clin. Chem. 25(7), 1979, 1317–9). Serum and urine creatinine levels are measured using the Jaffé rate reaction (Larsen, K., Clin. Chim. Acta 41, 1972, 209–17).
Tissues are fixed in 4% neutral buffered-formalin and embedded in paraffin. Kidney sections (4 μm) are stained with periodic-acid Schiff's reagent (PAS). Quantitation of nuclei is performed by examining 50 hilar glomeruli per animal.
Immunostaining is performed as described by Rumble et al., J. Clin. Invest. 99, 1997, 1016–1027. Double immunohistochemical staining is performed in formalin fixed tissue sections using a microwave-based technique to prevent antibody cross-reactivity (G. H. Tesch, et al, Am. J. Pathol. 151(1), 1997, 141–50).
Sections stained with either BrdU or ED1 antibody are scored for ED1+ or BrdU+. Counting is undertaken using a graticule to measure glomerular tuft area and confined to the glomerular tuft thereby omitting cells within the capillary lumen. Fifty glomeruli are scored for each animal and labelled cells expressed as the mean±SD per mm^2. In addition, the number of cells in double-labelled sections are also scored as ED1+BrdU+, ED1+BrdU− and ED1−BrdU+.
The magnitude of immunostaining for type IV collagen is quantified using computer assisted image analysis as previously described (H. A. Lehr et al., J. Histochem. Cytochem. 45(11), 1997, 1559–65).

[1] = 50 mg/kg daily i.p., day 6, 50 hilar glomeruli per animal, p<0.05

Cc1ccc(NC(=O)c2ccc(CN3CCN(C)CC3)cc2)cc1Nc1nccc(-c2cccnc2)n1 [CGP 57148B, N-{5-[4-(4-methyl-piperazino-methyl)-benzoylamido]-2-methylphenyl}-4-(3-pyridyl)-2-pyrimidine-amine]
Proteinuria (50 mg/kg daily i.p. from day 1 after OX-7 IgG, day 6, 24-hour urine): 16.4±7.0 mg/24 hours
Mesangial cell (BrdU+ED1−) proliferation per glomerular cross section (FIG. 2) (50 mg/kg daily i.p., day 6, 50 hilar glomeruli per animal, p<0.001): significantly reduced
Glomerular hypercellularity, nuclei per glomerular cross section (FIG. 1) [1]: significantly reduced
Number of activated mesangial cells (a-smooth muscle actin positive) (FIG. 3) [1]: significantly reduced
Glomerular matrix accumulation of immunostainable type IV collagen (FIG. 4) (50 mg/kg daily i.p., day 6, image analysis, p<0.05 versus untreated rats): significantly reduced
Mesangial hypercellularity and increased mesangial matrix in PAS-stained kidney sections (50 mg/kg daily i.p., killed on day 6): not observed
